Values after ≈ are worked out from the molar mass of the structure shown.
test system: Pseudomonas aeruginosa; assay: Antibacterial activity against Pseudomonas aeruginosa ATCC 27853 after 24 hrs by broth microdilution method; assay type: functional; conditions: ATCC 27853, 24 h

SMILES	MIC
Cc1nc(-c2ccccc2)sc1-c1nnc(S)n1/N=C/c1cccc(O)c1	1.95 to 62.5 mg/L (≈ 4.96 to 159 µM)
Cc1nc(-c2ccccc2)sc1-c1nnc(S)n1/N=C/c1ccccc1O	1.95 to 62.5 mg/L (≈ 4.96 to 159 µM)
Cc1nc(-c2ccccc2)sc1-c1nnc(S)n1/N=C/c1ccc(O)cc1	1.95 to 62.5 mg/L (≈ 4.96 to 159 µM)
Cc1nc(-c2ccccc2)sc1-c1nnc(S)n1/N=C/c1cccc(Cl)c1	1.95 to 62.5 mg/L (≈ 4.73 to 152 µM)

test system: Candida albicans; assay: Antifungal activity against Candida albicans; assay type: functional; conditions: not given

SMILES	MIC
C/C=N/n1c(S)nnc1-c1ccncc1	10.2 to 162 mg/L (≈ 46.5 to 741 µM)
COc1ccc(/C=N/n2c(S)nnc2-c2ccncc2)cc1	10.2 to 162 mg/L (≈ 32.8 to 522 µM)
Fc1ccc(/C=N/n2c(-c3ccncc3)n[nH]c2=S)cc1	10.2 to 162 mg/L (≈ 34.1 to 543 µM)
CC/C=N/n1c(S)nnc1-c1ccncc1	10.2 to 162 mg/L (≈ 43.7 to 697 µM)
Sc1nnc(-c2ccncc2)n1/N=C/c1ccc(Cl)cc1	10.2 to 162 mg/L (≈ 32.3 to 515 µM)
Sc1nnc(-c2ccncc2)n1/N=C/c1ccc(Br)cc1	10.2 to 162 mg/L (≈ 28.3 to 451 µM)
COc1cc(/C=N/n2c(S)nnc2-c2ccncc2)cc(OC)c1OC	10.2 to 162 mg/L (≈ 27.5 to 438 µM)
Sc1nnc(-c2ccncc2)n1/N=C/c1ccccc1	10.2 to 162 mg/L (≈ 36.3 to 578 µM)
O=[N+]([O-])c1ccc(/C=N/n2c(S)nnc2-c2ccncc2)cc1	10.2 to 162 mg/L (≈ 31.3 to 498 µM)

test system: Pseudomonas aeruginosa; assay: Antibacterial activity against Pseudomonas aeruginosa; assay type: functional; conditions: not given

SMILES	MIC
C/C=N/n1c(S)nnc1-c1ccncc1	10.2 to 162 mg/L (≈ 46.5 to 741 µM)
COc1ccc(/C=N/n2c(S)nnc2-c2ccncc2)cc1	10.2 to 162 mg/L (≈ 32.8 to 522 µM)
Fc1ccc(/C=N/n2c(-c3ccncc3)n[nH]c2=S)cc1	12.5 mg/L (≈ 41.8 µM)
CC/C=N/n1c(S)nnc1-c1ccncc1	10.2 to 162 mg/L (≈ 43.7 to 697 µM)
Sc1nnc(-c2ccncc2)n1/N=C/c1ccc(Cl)cc1	10.2 to 162 mg/L (≈ 32.3 to 515 µM)
Sc1nnc(-c2ccncc2)n1/N=C/c1ccc(Br)cc1	10.2 to 162 mg/L (≈ 28.3 to 451 µM)
COc1cc(/C=N/n2c(S)nnc2-c2ccncc2)cc(OC)c1OC	10.2 to 162 mg/L (≈ 27.5 to 438 µM)
Sc1nnc(-c2ccncc2)n1/N=C/c1ccccc1	14.1 to 17.2 mg/L (≈ 50.1 to 61.1 µM)
O=[N+]([O-])c1ccc(/C=N/n2c(S)nnc2-c2ccncc2)cc1	10.2 to 162 mg/L (≈ 31.3 to 498 µM)

test system: Escherichia coli; assay: Antibacterial activity against Escherichia coli after 24 hrs by broth microdilution method; assay type: functional; conditions: not given

SMILES	MIC
Cc1nc(-c2ccccc2)sc1-c1nnc(S)n1/N=C/c1cccc(O)c1	1.95 to 62.5 mg/L (≈ 4.96 to 159 µM)
Cc1nc(-c2ccccc2)sc1-c1nnc(S)n1/N=C/c1ccccc1O	1.95 to 62.5 mg/L (≈ 4.96 to 159 µM)
Cc1nc(-c2ccccc2)sc1-c1nnc(S)n1/N=C/c1ccc(O)cc1	1.95 to 62.5 mg/L (≈ 4.96 to 159 µM)
Cc1nc(-c2ccccc2)sc1-c1nnc(S)n1/N=C/c1cccc(Cl)c1	1.95 to 62.5 mg/L (≈ 4.73 to 152 µM)

test system: Aspergillus niger; assay: Antifungal activity against Aspergillus niger; assay type: functional; conditions: not given

SMILES	MIC
C/C=N/n1c(S)nnc1-c1ccncc1	10.2 to 162 mg/L (≈ 46.5 to 741 µM)
COc1ccc(/C=N/n2c(S)nnc2-c2ccncc2)cc1	10.2 to 162 mg/L (≈ 32.8 to 522 µM)
Fc1ccc(/C=N/n2c(-c3ccncc3)n[nH]c2=S)cc1	10.2 to 162 mg/L (≈ 34.1 to 543 µM)
CC/C=N/n1c(S)nnc1-c1ccncc1	10.2 to 162 mg/L (≈ 43.7 to 697 µM)
Sc1nnc(-c2ccncc2)n1/N=C/c1ccc(Cl)cc1	10.2 to 162 mg/L (≈ 32.3 to 515 µM)
Sc1nnc(-c2ccncc2)n1/N=C/c1ccc(Br)cc1	10.2 to 162 mg/L (≈ 28.3 to 451 µM)
COc1cc(/C=N/n2c(S)nnc2-c2ccncc2)cc(OC)c1OC	10.2 to 162 mg/L (≈ 27.5 to 438 µM)
Sc1nnc(-c2ccncc2)n1/N=C/c1ccccc1	10.2 to 162 mg/L (≈ 36.3 to 578 µM)
O=[N+]([O-])c1ccc(/C=N/n2c(S)nnc2-c2ccncc2)cc1	10.2 to 162 mg/L (≈ 31.3 to 498 µM)

test system: Escherichia coli; assay: Antibacterial activity against Escherichia coli; assay type: functional; conditions: not given

SMILES	MIC
C/C=N/n1c(S)nnc1-c1ccncc1	10.2 to 162 mg/L (≈ 46.5 to 741 µM)
COc1ccc(/C=N/n2c(S)nnc2-c2ccncc2)cc1	10.2 to 162 mg/L (≈ 32.8 to 522 µM)
Fc1ccc(/C=N/n2c(-c3ccncc3)n[nH]c2=S)cc1	10.2 to 162 mg/L (≈ 34.1 to 543 µM)
CC/C=N/n1c(S)nnc1-c1ccncc1	10.2 to 162 mg/L (≈ 43.7 to 697 µM)
Sc1nnc(-c2ccncc2)n1/N=C/c1ccc(Cl)cc1	10.2 to 162 mg/L (≈ 32.3 to 515 µM)
Sc1nnc(-c2ccncc2)n1/N=C/c1ccc(Br)cc1	10.2 to 162 mg/L (≈ 28.3 to 451 µM)
COc1cc(/C=N/n2c(S)nnc2-c2ccncc2)cc(OC)c1OC	10.2 to 162 mg/L (≈ 27.5 to 438 µM)
Sc1nnc(-c2ccncc2)n1/N=C/c1ccccc1	10.2 to 162 mg/L (≈ 36.3 to 578 µM)
O=[N+]([O-])c1ccc(/C=N/n2c(S)nnc2-c2ccncc2)cc1	10.2 to 162 mg/L (≈ 31.3 to 498 µM)

test system: Bacillus subtilis; assay: Antibacterial activity against Bacillus subtilis; assay type: functional; conditions: not given

SMILES	MIC
C/C=N/n1c(S)nnc1-c1ccncc1	10.2 to 162 mg/L (≈ 46.5 to 741 µM)
COc1ccc(/C=N/n2c(S)nnc2-c2ccncc2)cc1	10.2 to 162 mg/L (≈ 32.8 to 522 µM)
Fc1ccc(/C=N/n2c(-c3ccncc3)n[nH]c2=S)cc1	10.2 to 162 mg/L (≈ 34.1 to 543 µM)
CC/C=N/n1c(S)nnc1-c1ccncc1	10.2 to 162 mg/L (≈ 43.7 to 697 µM)
Sc1nnc(-c2ccncc2)n1/N=C/c1ccc(Cl)cc1	10.2 to 162 mg/L (≈ 32.3 to 515 µM)
Sc1nnc(-c2ccncc2)n1/N=C/c1ccc(Br)cc1	10.2 to 162 mg/L (≈ 28.3 to 451 µM)
COc1cc(/C=N/n2c(S)nnc2-c2ccncc2)cc(OC)c1OC	10.2 to 162 mg/L (≈ 27.5 to 438 µM)
Sc1nnc(-c2ccncc2)n1/N=C/c1ccccc1	10.2 to 162 mg/L (≈ 36.3 to 578 µM)
O=[N+]([O-])c1ccc(/C=N/n2c(S)nnc2-c2ccncc2)cc1	10.2 to 162 mg/L (≈ 31.3 to 498 µM)

test system: Staphylococcus aureus; assay: Antibacterial activity against Staphylococcus aureus; assay type: functional; conditions: not given

SMILES	MIC
C/C=N/n1c(S)nnc1-c1ccncc1	10.2 to 162 mg/L (≈ 46.5 to 741 µM)
COc1ccc(/C=N/n2c(S)nnc2-c2ccncc2)cc1	10.2 to 162 mg/L (≈ 32.8 to 522 µM)
Fc1ccc(/C=N/n2c(-c3ccncc3)n[nH]c2=S)cc1	10.2 mg/L (≈ 34.1 µM)
CC/C=N/n1c(S)nnc1-c1ccncc1	10.2 to 162 mg/L (≈ 43.7 to 697 µM)
Sc1nnc(-c2ccncc2)n1/N=C/c1ccc(Cl)cc1	10.2 to 162 mg/L (≈ 32.3 to 515 µM)
Sc1nnc(-c2ccncc2)n1/N=C/c1ccc(Br)cc1	10.2 to 162 mg/L (≈ 28.3 to 451 µM)
COc1cc(/C=N/n2c(S)nnc2-c2ccncc2)cc(OC)c1OC	10.2 to 162 mg/L (≈ 27.5 to 438 µM)
Sc1nnc(-c2ccncc2)n1/N=C/c1ccccc1	14.1 to 17.2 mg/L (≈ 50.1 to 61.1 µM)
O=[N+]([O-])c1ccc(/C=N/n2c(S)nnc2-c2ccncc2)cc1	10.2 to 162 mg/L (≈ 31.3 to 498 µM)

test system: Listeria monocytogenes; assay: Antibacterial activity against Listeria monocytogenes ATCC 35152 after 24 hrs by broth microdilution method; assay type: functional; conditions: ATCC 35152, 24 h

SMILES	MIC
Cc1nc(-c2ccccc2)sc1-c1nnc(S)n1/N=C/c1cccc(O)c1	1.95 to 62.5 mg/L (≈ 4.96 to 159 µM)
Cc1nc(-c2ccccc2)sc1-c1nnc(S)n1/N=C/c1ccccc1O	1.95 to 62.5 mg/L (≈ 4.96 to 159 µM)
Cc1nc(-c2ccccc2)sc1-c1nnc(S)n1/N=C/c1ccc(O)cc1	1.95 to 62.5 mg/L (≈ 4.96 to 159 µM)
Cc1nc(-c2ccccc2)sc1-c1nnc(S)n1/N=C/c1cccc(Cl)c1	1.95 to 62.5 mg/L (≈ 4.73 to 152 µM)

test system: Staphylococcus aureus; assay: Antibacterial activity against Staphylococcus aureus ATCC 49444 after 24 hrs by broth microdilution method; assay type: functional; conditions: ATCC 49444, 24 h

SMILES	MIC
Cc1nc(-c2ccccc2)sc1-c1nnc(S)n1/N=C/c1cccc(O)c1	1.95 to 62.5 mg/L (≈ 4.96 to 159 µM)
Cc1nc(-c2ccccc2)sc1-c1nnc(S)n1/N=C/c1ccccc1O	1.95 to 62.5 mg/L (≈ 4.96 to 159 µM)
Cc1nc(-c2ccccc2)sc1-c1nnc(S)n1/N=C/c1ccc(O)cc1	1.95 to 62.5 mg/L (≈ 4.96 to 159 µM)
Cc1nc(-c2ccccc2)sc1-c1nnc(S)n1/N=C/c1cccc(Cl)c1	1.95 to 62.5 mg/L (≈ 4.73 to 152 µM)

test system: Salmonella typhimurium; assay: Antibacterial activity against Salmonella typhimurium ATCC 14028 after 24 hrs by broth microdilution method; assay type: functional, Salmonella enterica subsp. enterica serovar Typhimurium; conditions: Salmonella enterica, ATCC 14028, 24 h

SMILES	MIC
Cc1nc(-c2ccccc2)sc1-c1nnc(S)n1/N=C/c1cccc(O)c1	1.95 to 62.5 mg/L (≈ 4.96 to 159 µM)
Cc1nc(-c2ccccc2)sc1-c1nnc(S)n1/N=C/c1ccccc1O	1.95 to 62.5 mg/L (≈ 4.96 to 159 µM)
Cc1nc(-c2ccccc2)sc1-c1nnc(S)n1/N=C/c1ccc(O)cc1	1.95 to 62.5 mg/L (≈ 4.96 to 159 µM)
Cc1nc(-c2ccccc2)sc1-c1nnc(S)n1/N=C/c1cccc(Cl)c1	1.95 to 62.5 mg/L (≈ 4.73 to 152 µM)

From ChEMBL document CHEMBL4346715, “Antibacterial activity study of 1,2,4-triazole derivatives” (Eur J Med Chem, 2019)
